Data published in US7868135B2, “Compositions of lipopeptide antibiotic derivatives and methods of use thereof” (priority 2003, dated 2011).
Starred links: 1 amine or outer side, 2 acyl side, 3 side chain; linkers in the order of their positions; H or OH if unused. Positions of bridges follow the written chain, without caps; N, C: chain ends. Non-standard residues stand in square brackets, D forms with d. Residues, ends and D or L forms follow the SMILES beside them. Groups on a side chain read outwards from the residue. ξ: configuration not given here. *: point of attachment. X33 = CCCCCCCCCCCC(=O)Nc1cc(NC(=O)CCCCCCCCCCC)cc(C(=O)*)c1; X34 = CCCCCC(=O)Nc1cc(NC(=O)CCCCC)cc(C(=O)*)c1; X3 = CC(NC(=O)[C@H](N)CN)C(N[*:1])C(=O)[*:2]; ξAbu(βξ-NH2) = CC(N[*:3])C(N[*:1])C(=O)[*:2]; Phac(3-amino) = O=C(Cc1cccc(N[*:1])c1)[*:2]; Benzoyl(3-OPh) = O=C(c1cccc(Oc2ccccc2)c1)*; Benzoyl(4-tBu) = CC(C)(C)c1ccc(C(=O)*)cc1; NH(2-CF3-phenyl) = FC(F)(F)c1ccccc1N*; Pentadecanoyl = CCCCCCCCCCCCCCC(=O)*; ξAsp(βξ-Me) = CC(C(=O)O)C(N)C(=O)O; Tridecanoyl = CCCCCCCCCCCCC(=O)*; X1 = O=C(Cc1ccc(N[*:1])cc1)[*:2]; X5 = CCCCCCCCCCCCn1cc(C(=O)*)nn1; NHtetradecyl = CCCCCCCCCCCCCCN*; ξAbu(3ξ-NH2) = CC(N)C(N)C(=O)O; Undecanoyl = CCCCCCCCCCC(=O)*; X9 = O=C(c1ccccc1Cc1ccccc1)*; Pip = O=C(O)[CH]1CCCCN1; ξD = NC(CC(=O)O)C(=O)O; ξPip = O=C(O)C1CCCCN1; CO = O=C([*:1])[*:2]; ξV = CC(C)C(N)C(=O)O; ξP = O=C(O)C1CCCN1; OtBu = CC(C)(C)O*

tested on: Staphylococcus aureus (MSSA); conditions: 24 h
Summary of the method: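 Broth microdilution MIC per NCCLS M7-A6 with doubling serial dilutions, in cation-adjusted Mueller-Hinton broth supplemented with 0.625 mM calcium.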

SMILES	MIC
CCCCCCCCCCCCCCNC(=O)NCC(=O)NC(CC(=O)O)C(=O)NC1C(=O)N2CCCCC2C(=O)NC(C(C)C(=O)O)C(=O)NC(CC(=O)O)C(=O)NCC(=O)NC(CC(=O)O)C(=O)NCC(=O)NC(C(C)N)C(=O)NC(C(C)C)C(=O)N2CCCC2C(=O)NC1C (stereo not drawn) [Compound 307, CH3—(CH2)13—NH—C(═O)-Gly-Amphomycin] ({NHtetradecyl-CO}-GD[ξAbu(βξ-NH2)][Pip][ξAsp(βξ-Me)]DGDG[ξAbu(3ξ-NH2)]VP; lactam 3-C; configuration not given here)	0.5 µg/mL
CCCCCCCCCCCCn1cc(C(=O)NC(CC(=O)O)C(=O)NC2C(=O)N3CCCCC3C(=O)NC(C(C)C(=O)O)C(=O)NC(CC(=O)O)C(=O)NCC(=O)NC(CC(=O)O)C(=O)NCC(=O)NC(C(C)N)C(=O)NC(C(C)C)C(=O)N3CCCC3C(=O)NC2C)nn1 (stereo not drawn) [Compound 309, 1-Dodecyl-1H-(1,2,3)-Triazole-4-Carboxyl-Amphomycin] (X5-D[ξAbu(βξ-NH2)][Pip][ξAsp(βξ-Me)]DGDG[ξAbu(3ξ-NH2)]VP; lactam 2-C; configuration not given here)	1 µg/mL
CCCCCCCCCCCCC(=O)N[C@@H](CC(=O)OC(C)(C)C)C(=O)NC(CC(=O)O)C(=O)NC1C(=O)N2CCCCC2C(=O)NC(C(C)C(=O)O)C(=O)NC(CC(=O)O)C(=O)NCC(=O)NC(CC(=O)O)C(=O)NCC(=O)NC(C(C)N)C(=O)NC(C(C)C)C(=O)N2CCCC2C(=O)NC1C (stereo partly drawn) [Compound 315, C13-(Asp-(OtBu))-Amphomycin] (Tridecanoyl-D(OtBu)[ξD][ξAbu(βξ-NH2)][ξPip][ξAsp(βξ-Me)][ξD]G[ξD]G[ξAbu(3ξ-NH2)][ξV][ξP]; lactam 3-C)	1 µg/mL
CCCCCCCCCCCCCCC(=O)NC(CC(=O)O)C(=O)NC1C(=O)N2CCCCC2C(=O)NC(C(C)C(=O)O)C(=O)NC(CC(=O)O)C(=O)NCC(=O)NC(CC(=O)O)C(=O)NCC(=O)NC(C(C)NC(=O)Nc2ccccc2C(F)(F)F)C(=O)NC(C(C)C)C(=O)N2CCCC2C(=O)NC1C (stereo not drawn) [Compound 318, C15-Amphomycin-9-C(═O)—NH—(O—CF3-Phenyl)] (Pentadecanoyl-D[ξAbu(βξ-NH2)][Pip][ξAsp(βξ-Me)]DGDG[ξAbu(βξ-NH2)]([CO-NH(2-CF3-phenyl)])VP; lactam 2-C; configuration not given here)	64 µg/mL
CC(C)C1NC(=O)C(C(C)N)NC(=O)CNC(=O)C(CC(=O)O)NC(=O)CNC(=O)C(CC(=O)O)NC(=O)C(C(C)C(=O)O)NC(=O)C2CCCCN2C(=O)C(NC(=O)C(CC(=O)O)NC(=O)c2ccccc2Cc2ccccc2)C(C)NC(=O)C2CCCN2C1=O (stereo not drawn) [Compound 323, (2-(Phenylmethyl)-Benzoyl)-Amphomycin] (X9-D[ξAbu(βξ-NH2)][Pip][ξAsp(βξ-Me)]DGDG[ξAbu(3ξ-NH2)]VP; lactam 2-C; configuration not given here)	>64 µg/mL
CC(C)C1NC(=O)C(C(C)N)NC(=O)CNC(=O)C(CC(=O)O)NC(=O)CNC(=O)C(CC(=O)O)NC(=O)C(C(C)C(=O)O)NC(=O)C2CCCCN2C(=O)C(NC(=O)C(CC(=O)O)NC(=O)c2ccc(C(C)(C)C)cc2)C(C)NC(=O)C2CCCN2C1=O (stereo not drawn) [Compound 326, (4-Tbutylbenzoyl)-Amphomycin] ({Benzoyl(4-tBu)}-D[ξAbu(βξ-NH2)][Pip][ξAsp(βξ-Me)]DGDG[ξAbu(3ξ-NH2)]VP; lactam 2-C; configuration not given here)	>64 µg/mL
CC(C)C1NC(=O)C(C(C)N)NC(=O)CNC(=O)C(CC(=O)O)NC(=O)CNC(=O)C(CC(=O)O)NC(=O)C(C(C)C(=O)O)NC(=O)C2CCCCN2C(=O)C(NC(=O)C(CC(=O)O)NC(=O)c2cccc(Oc3ccccc3)c2)C(C)NC(=O)C2CCCN2C1=O (stereo not drawn) [Compound 327, (3-(Phenoxy)-Benzoyl)-Amphomycin] ({Benzoyl(3-OPh)}-D[ξAbu(βξ-NH2)][Pip][ξAsp(βξ-Me)]DGDG[ξAbu(3ξ-NH2)]VP; lactam 2-C; configuration not given here)	>64 µg/mL
CCCCCCCCCCCCCCC(=O)NC(CC(=O)O)C(=O)NC1C(=O)N2CCCCC2C(=O)NC(C(C)C(=O)O)C(=O)NC(CC(=O)O)C(=O)NCC(=O)NC(CC(=O)O)C(=O)NCC(=O)NC(C(C)NC(=O)[C@H](N)CN)C(=O)NC(C(C)C)C(=O)N2CCCC2C(=O)NC1C (stereo partly drawn) [Compound 328, C15-Amphomycin-9-(D-Dap)] (Pentadecanoyl-[ξD][ξAbu(βξ-NH2)][ξPip][ξAsp(βξ-Me)][ξD]G[ξD]G[X3][ξV][ξP]; lactam 2-C)	2 µg/mL
CCCCCCCCCCCCCCC(=O)NC(C)C1NC(=O)CNC(=O)C(CC(=O)O)NC(=O)CNC(=O)C(CC(=O)O)NC(=O)C(C(C)C(=O)O)NC(=O)C2CCCCN2C(=O)C(NC(=O)C(CC(=O)O)NC(=O)CNC(=O)[C@@H](N)CCCCN)C(C)NC(=O)C2CCCN2C(=O)C(C(C)C)NC1=O (stereo partly drawn) [Compound 331, Lys-Gly-Amphomycin-9-C15] (H-KG[ξD][ξAbu(βξ-NH2)][ξPip][ξAsp(βξ-Me)][ξD]G[ξD]G[ξAbu(βξ-NH2)](Pentadecanoyl)[ξV][ξP]; lactam 4-C)	>64 µg/mL

Continued, values first:

MIC	SMILES
1 µg/mL	CCCCCCCCCCCCCCC(=O)Nc1cccc(CC(=O)NC(CC(=O)O)C(=O)NC2C(=O)N3CCCCC3C(=O)NC(C(C)C(=O)O)C(=O)NC(CC(=O)O)C(=O)NCC(=O)NC(CC(=O)O)C(=O)NCC(=O)NC(C(C)N)C(=O)NC(C(C)C)C(=O)N3CCCC3C(=O)NC2C)c1 (stereo not drawn) [Compound 310, C15-(M-Apa)-Amphomycin] (Pentadecanoyl-[Phac(3-amino)]D[ξAbu(βξ-NH2)][Pip][ξAsp(βξ-Me)]DGDG[ξAbu(3ξ-NH2)]VP; lactam 3-C; configuration not given here)
8 µg/mL	CCCCCCCCCCCCC(=O)N[C@@H](CC(=O)OC)C(=O)NC(CC(=O)O)C(=O)NC1C(=O)N2CCCCC2C(=O)NC(C(C)C(=O)O)C(=O)NC(CC(=O)O)C(=O)NCC(=O)NC(CC(=O)O)C(=O)NCC(=O)NC(C(C)N)C(=O)NC(C(C)C)C(=O)N2CCCC2C(=O)NC1C (stereo partly drawn) [Compound 311, C13-(Asp-(OMe))-Amphomycin] (Tridecanoyl-D(OMe)[ξD][ξAbu(βξ-NH2)][ξPip][ξAsp(βξ-Me)][ξD]G[ξD]G[ξAbu(3ξ-NH2)][ξV][ξP]; lactam 3-C)
1 µg/mL	CCCCCCCCCCCCCCC(=O)Nc1ccc(CC(=O)NC(CC(=O)O)C(=O)NC2C(=O)N3CCCCC3C(=O)NC(C(C)C(=O)O)C(=O)NC(CC(=O)O)C(=O)NCC(=O)NC(CC(=O)O)C(=O)NCC(=O)NC(C(C)N)C(=O)NC(C(C)C)C(=O)N3CCCC3C(=O)NC2C)cc1 (stereo not drawn) [Compound 312, C15-(p-Apa)-Amphomycin] (Pentadecanoyl-[X1]D[ξAbu(βξ-NH2)][Pip][ξAsp(βξ-Me)]DGDG[ξAbu(3ξ-NH2)]VP; lactam 3-C; configuration not given here)
0.5 to 1 µg/mL	CCCCCCCCCCCCCCC(=O)N[C@@H](CC(=O)OC)C(=O)NC(CC(=O)O)C(=O)NC1C(=O)N2CCCCC2C(=O)NC(C(C)C(=O)O)C(=O)NC(CC(=O)O)C(=O)NCC(=O)NC(CC(=O)O)C(=O)NCC(=O)NC(C(C)N)C(=O)NC(C(C)C)C(=O)N2CCCC2C(=O)NC1C (stereo partly drawn) [Compound 313, C15-(Asp-(OME))-Amphomycin] (Pentadecanoyl-D(OMe)[ξD][ξAbu(βξ-NH2)][ξPip][ξAsp(βξ-Me)][ξD]G[ξD]G[ξAbu(3ξ-NH2)][ξV][ξP]; lactam 3-C)
8 µg/mL	CCCCCCCCCCC(=O)N[C@@H](CC(=O)OC(C)(C)C)C(=O)NC(CC(=O)O)C(=O)NC1C(=O)N2CCCCC2C(=O)NC(C(C)C(=O)O)C(=O)NC(CC(=O)O)C(=O)NCC(=O)NC(CC(=O)O)C(=O)NCC(=O)NC(C(C)N)C(=O)NC(C(C)C)C(=O)N2CCCC2C(=O)NC1C (stereo partly drawn) [Compound 314, C11-(Asp-(OtBu))-Amphomycin] (Undecanoyl-D(OtBu)[ξD][ξAbu(βξ-NH2)][ξPip][ξAsp(βξ-Me)][ξD]G[ξD]G[ξAbu(3ξ-NH2)][ξV][ξP]; lactam 3-C)
>64 µg/mL	CCCCCCCCCCC(=O)N[C@@H](CC(=O)OC)C(=O)NC(CC(=O)O)C(=O)NC1C(=O)N2CCCCC2C(=O)NC(C(C)C(=O)O)C(=O)NC(CC(=O)O)C(=O)NCC(=O)NC(CC(=O)O)C(=O)NCC(=O)NC(C(C)N)C(=O)NC(C(C)C)C(=O)N2CCCC2C(=O)NC1C (stereo partly drawn) [Compound 316, C11-(Asp-(OMe))-Amphomycin] (Undecanoyl-D(OMe)[ξD][ξAbu(βξ-NH2)][ξPip][ξAsp(βξ-Me)][ξD]G[ξD]G[ξAbu(3ξ-NH2)][ξV][ξP]; lactam 3-C)
1 µg/mL	CCCCCCCCCCCCCCC(=O)N[C@H](CC(=O)OC)C(=O)NC(CC(=O)O)C(=O)NC1C(=O)N2CCCCC2C(=O)NC(C(C)C(=O)O)C(=O)NC(CC(=O)O)C(=O)NCC(=O)NC(CC(=O)O)C(=O)NCC(=O)NC(C(C)N)C(=O)NC(C(C)C)C(=O)N2CCCC2C(=O)NC1C (stereo partly drawn) [Compound 317, C15-(Asp-(Ome))-Amphomycin] (Pentadecanoyl-[dD](OMe)[ξD][ξAbu(βξ-NH2)][ξPip][ξAsp(βξ-Me)][ξD]G[ξD]G[ξAbu(3ξ-NH2)][ξV][ξP]; lactam 3-C)
64 µg/mL	CCCCCC(=O)Nc1cc(NC(=O)CCCCC)cc(C(=O)NC(CC(=O)O)C(=O)NC2C(=O)N3CCCCC3C(=O)NC(C(C)C(=O)O)C(=O)NC(CC(=O)O)C(=O)NCC(=O)NC(CC(=O)O)C(=O)NCC(=O)NC(C(C)N)C(=O)NC(C(C)C)C(=O)N3CCCC3C(=O)NC2C)c1 (stereo not drawn) [Compound 319, N,N′-di-C6-(M,M-Diaminobenzoyl)-Amphomycin] (X34-D[ξAbu(βξ-NH2)][Pip][ξAsp(βξ-Me)]DGDG[ξAbu(3ξ-NH2)]VP; lactam 2-C; configuration not given here)
2 µg/mL	CCCCCCCCCCCC(=O)Nc1cc(NC(=O)CCCCCCCCCCC)cc(C(=O)NC(CC(=O)O)C(=O)NC2C(=O)N3CCCCC3C(=O)NC(C(C)C(=O)O)C(=O)NC(CC(=O)O)C(=O)NCC(=O)NC(CC(=O)O)C(=O)NCC(=O)NC(C(C)N)C(=O)NC(C(C)C)C(=O)N3CCCC3C(=O)NC2C)c1 (stereo not drawn) [Compound 320, N,N′-di-C12-(M,M-Diaminobenzoyl)-Amphomycin] (X33-D[ξAbu(βξ-NH2)][Pip][ξAsp(βξ-Me)]DGDG[ξAbu(3ξ-NH2)]VP; lactam 2-C; configuration not given here)
>64 µg/mL	CCCCCCCCNC(=O)NCCC(=O)NC(CC(=O)O)C(=O)NC1C(=O)N2CCCCC2C(=O)NC(C(C)C(=O)O)C(=O)NC(CC(=O)O)C(=O)NCC(=O)NC(CC(=O)O)C(=O)NCC(=O)NC(C(C)N)C(=O)NC(C(C)C)C(=O)N2CCCC2C(=O)NC1C (stereo not drawn) [Compound 321, CH3—(CH2)7—NH—C(═O)-(β-Ala)-Amphomycin]
